Values of other authors in paper PMC8537277 (Pharmaceuticals, 2021).

Target: HA receptor-binding site (RBS)
Design: method as in PMID 29610325
Details: ref [20]; cited from earlier work

Question: With CC(=O)N[C@H]1[C@H]([C@H](O)[C@H](O)CO)OC(O)(C(=O)O)C[C@@H]1O (stereo partly shown) [sialic acid] as the compound, how does the KD read?
Answer: mM range
